Results from ChEMBL document CHEMBL2385055, “Optimization of a 1,5-dihydrobenzo[b][1,4]diazepine-2,4-dione series of HIV capsid assembly inhibitors 2: structure-activity relationships (SAR) of the C3-phenyl moiety” (Bioorg Med Chem Lett, 2013).

System: not listed separately
Test: Induction of HIV1 NL4-3 nucleocapsid protein disassembly expressed in expressed in Escherichia coli BL21 (DE3) using 5'-end fluorescein labeled (TG)25 oligonucleotide after 2 hrs by fluorescence assay
Set-up: species or system Human immunodeficiency virus 1
Settings: not given

CCN1C(=O)C(c2ccc(O)cc2)C(=O)N(c2ccccc2)c2cc(C(F)(F)F)ccc21 (stereo not given) and CCN1C(=O)C(c2ccc(-c3ccncc3)cc2)C(=O)N(c2ccccc2)c2cc(C(F)(F)F)ccc21 (stereo not given) are within 1.5-fold of each other in IC50: 180 nM for the first, 210 nM for the second.

Going from CN1C(=O)C(c2ccccc2)C(=O)N(c2ccccc2)c2cc(C(F)(F)F)ccc21 (stereo not given) to CCN1C(=O)C(c2cccc(-c3ccncc3)c2)C(=O)N(c2ccccc2)c2cc(C(F)(F)F)ccc21 (stereo not given), the IC50 falls from 680 nM to 190 nM (3.6-fold).

Going from CCN1C(=O)C2(CCc3c2ccc(O)c3-c2cnn(C)c2)C(=O)N(c2ccccc2)c2cc(C(F)(F)F)ccc21 (stereo not given) to CCN1C(=O)N(c2ccc(O)c(-c3cnn(C)c3)c2)C(=O)N(c2ccccc2)c2cc(C(F)(F)F)ccc21, the IC50 falls from 200 nM to 120 nM (1.7-fold).

With CCN1C(=O)C(c2ccc(-c3cnc(OC)nc3)cc2)C(=O)N(c2ccccc2)c2cc(C(F)(F)F)ccc21 (stereo not given) the IC50 was 270 nM.

System: not listed separately
Test: Cytotoxicity against human C8166 cells
Type: cell-based
Settings: not given

CCN1C(=O)C(c2ccc(-c3ccncc3)cc2)C(=O)N(c2ccccc2)c2cc(C(F)(F)F)ccc21 (stereo not given) and CCN1C(=O)C(c2cccc(-c3ccncc3)c2)C(=O)N(c2ccccc2)c2cc(C(F)(F)F)ccc21 (stereo not given) are within 1.5-fold of each other in CC50: 15000 nM for the first, 17000 nM for the second.

Compared with CCN1C(=O)C(c2ccc(-c3cnc(OC)nc3)cc2)C(=O)N(c2ccccc2)c2cc(C(F)(F)F)ccc21 (stereo not given), CCN1C(=O)C(c2cccc(-c3cccnc3)c2)C(=O)N(c2ccccc2)c2cc(C(F)(F)F)ccc21 (stereo not given) is lower in CC50: > 20000 nM for the first, 20000 nM for the second.

System: Human immunodeficiency virus 1
Test: Antiviral activity against HIV1 infected in human C8166 cells assessed as inhibition of viral replication after 2 days by luciferase assay
Type: functional, organism-based
Settings: Human immunodeficiency virus 1, C8166, 48 h

Going from COc1cccc(C2C(=O)N(C)c3ccc(C(F)(F)F)cc3N(c3ccccc3)C2=O)c1 (stereo not given) to COc1ccc(C2C(=O)N(C)c3ccc(C(F)(F)F)cc3N(c3ccccc3)C2=O)cc1 (stereo not given), the EC50 rises from 1200 nM to 3200 nM (2.7-fold). The first is the more potent here.

First: CCN1C(=O)C(c2ccc(O)cc2)C(=O)N(c2ccccc2)c2cc(C(F)(F)F)ccc21 (stereo not given)
Second: CCN1C(=O)C(c2ccc(-c3ccncc3)cc2)C(=O)N(c2ccccc2)c2cc(C(F)(F)F)ccc21 (stereo not given)
The EC50 of the first is 1.8-fold higher: 1000 nM for the first, 570 nM for the second.

CCN1C(=O)C(c2cccc(-c3ccncc3)c2)C(=O)N(c2ccccc2)c2cc(C(F)(F)F)ccc21 (stereo not given) and CCN1C(=O)C(c2cccc(-c3cccnc3)c2)C(=O)N(c2ccccc2)c2cc(C(F)(F)F)ccc21 (stereo not given) are within 1.5-fold of each other in EC50: 790 nM for the first, 1000 nM for the second.

First: CCN1C(=O)C2(CCc3c2ccc(O)c3-c2cnn(C)c2)C(=O)N(c2ccccc2)c2cc(C(F)(F)F)ccc21 (stereo not given)
Second: CCN1C(=O)N(c2ccc(O)c(-c3cnn(C)c3)c2)C(=O)N(c2ccccc2)c2cc(C(F)(F)F)ccc21
The EC50 of the first is 3.2-fold higher: 780 nM for the first, 240 nM for the second. The second is the more potent here.

Going from COc1ccccc1C1C(=O)N(C)c2ccc(C(F)(F)F)cc2N(c2ccccc2)C1=O (stereo not given) to CCN1C(=O)C(c2ccc(-c3cnc(OC)nc3)cc2)C(=O)N(c2ccccc2)c2cc(C(F)(F)F)ccc21 (stereo not given), the EC50 falls from 2700 nM to 620 nM (4.4-fold).

System: not listed separately
Test: Inhibition of HIV1 NL4-3 nucleocapsid protein assembly expressed in expressed in Escherichia coli BL21 (DE3) using 5'-end fluorescein labeled (TG)25 oligonucleotide after 2 hrs by fluorescence assay
Set-up: species or system Human immunodeficiency virus 1
Settings: not given

First: CCN1C(=O)C(c2ccccc2-c2ccncc2)C(=O)N(c2ccccc2)c2cc(C(F)(F)F)ccc21 (stereo not given)
Second: CCN1C(=O)C(c2cccc(-c3ccncc3)c2)C(=O)N(c2ccccc2)c2cc(C(F)(F)F)ccc21 (stereo not given)
The IC50 of the first is higher: > 7200 nM for the first, 530 nM for the second.

Compared with COc1cccc(C2C(=O)N(C)c3ccc(C(F)(F)F)cc3N(c3ccccc3)C2=O)c1 (stereo not given), COc1ccc(C2C(=O)N(C)c3ccc(C(F)(F)F)cc3N(c3ccccc3)C2=O)cc1 (stereo not given) is 2-fold higher in IC50: 550 nM for the first, 1100 nM for the second.

CCN1C(=O)C(c2ccc(O)cc2)C(=O)N(c2ccccc2)c2cc(C(F)(F)F)ccc21 (stereo not given) and CCN1C(=O)C(c2ccc(-c3ccncc3)cc2)C(=O)N(c2ccccc2)c2cc(C(F)(F)F)ccc21 (stereo not given) are within 1.5-fold of each other in IC50: 400 nM for the first, 390 nM for the second.

Compared with COc1ccccc1C1C(=O)N(C)c2ccc(C(F)(F)F)cc2N(c2ccccc2)C1=O (stereo not given), CCN1C(=O)C(c2ccc(-c3cnc(OC)nc3)cc2)C(=O)N(c2ccccc2)c2cc(C(F)(F)F)ccc21 (stereo not given) is 1.6-fold lower in IC50: 710 nM for the first, 450 nM for the second.

CCN1C(=O)C(c2cccc(-c3cccnc3)c2)C(=O)N(c2ccccc2)c2cc(C(F)(F)F)ccc21 (stereo not given) gave an IC50 of 480 nM.
